According to patent US20260364184A1, “COMPOUND BASED ON OXOISOINDOLINYL-SUBSTITUTED TETRAHYDROPYRIMIDINE-DIONE AND USE THEREOF” (GLUETACS THERAPEUTICS (SHANGHAI) CO., LTD., priority 2023, published 2026):

Columns and labels:
Assay type in all cases: cell-based
[1] = target: T1, ALK (Homo sapiens, UniProt Q9UM73); assay: Western blot degradation of ALK; conditions: H2228 Cell; 24 hours
T1 construct: known EML4-ALK variant 3 fusion, ALK kinase part unmutated), Western blot
Experimental: (§1) Conventional Western blot assay was performed to evaluate the effects of the compounds of the present disclosure on the expression of target proteins in cells.
(§2) (1) Cell Seeding and Protein Harvesting: The selected cells were processed according to the cell seeding procedure and protein harvesting procedure in Table II-2.
(§3) (2) To the collected supernatant, 5×SDS sample loading buffer was added, followed by denaturation at 95 °C for 5 minutes. The denatured samples were then separated by SDS-PAGE electrophoresis on a polyacrylamide gel. Proteins were transferred to a nitrocellulose membrane (0.45 μm NC membrane), blocked with blocking buffer at room temperature for 1 hour, and subjected to antibody incubation and development procedures according to the antibody manufacturer's instructions (Cell Signaling Technology).
(§4) Half-Maximal Degradation Concentration value (the drug concentration required for degrading proteins by 50%, abbreviated as DC50) reads method: comparing the grayscale values of Western blot bands from drug-treated samples with those from blank DMSO-treated controls, and identifying the drug concentration range at which the grayscale value is half that of the DMSO-treated control bands.
(§5) DC50 values can be calculated using ImageJ software to measure grayscale values of Western blot bands from drug-treated samples. The concentration-response curve is fitted to estimate the drug concentration corresponding to half the grayscale value.
(§6) Target protein remaining (%) refers to the percentage of target protein remaining in cells after treatment with protein degrader compounds.
(§7) Calculation method for target protein remaining (%): Use ImageJ software to measure grayscale values of Western blot bands from drug (protein degrader)-treated samples. The grayscale value of drug-treated bands is divided by that of internal control protein bands, and the resulting quotient is normalized to obtain the relative percentage of remaining target protein after protein degrader treatment.
(§8) Target protein degradation rate (%)=1−target protein remaining (%).

[2] = tested on: Human T lymphocytic leukemia cell line (Jurkat); assay: Inhibition of Jurkat cell proliferation (CellTiter luminescent viability); conditions: Homo sapiens, Table IF3, AR inhibitor-based, 96 hours; for inhibition at 0.01 µM: 10 nM, read-out: Inhibition Rate at 10 nM (%); for inhibition at 0.5 µM: 500 nM, read-out: Inhibition Rate at 500 nM (%)
Experimental: The tumor cells used herein were cultured in a cell culture medium listed in table 3 at 37 °C in an incubator with 5% CO2. Prior to experimentation, all cell lines used were correctly identified by STR profiling, and tested negative for mycoplasma contamination using a mycoplasma detection kit through routine screenings.
The IC50 values of the compounds of the present disclosure (including the compounds in Table 1, Table 2, and Examples 1-468) were determined using the CellTiter-Meiluncell Luminescent Cell Viability Assay Kit from Dalian Meilun Biotech Co., Ltd. The detailed procedure is as follows: Tumor cells were seeded in 96-well cell culture plates at the densities specified in Table 4. On the following day, the test compounds of the present disclosure were subjected to serial dilution. The dilution can be performed according to one of the following two methods: • (1) The first dilution method: The test compounds of the present disclosure (including the compounds in Table 1, Table 2, and Examples 1-468) were subjected to 5-fold serial dilutions starting from a highest concentration of 2000 μM, resulting in a total of 9 concentrations from high to low (2000, 400, 80, 16, 3.2, 0.64, 0.128, 0.0256, 0.00512 μM). Subsequently, 0.5 μL of the test compound dilution was transferred into the 96-well plate containing the cells, with each well containing 100 μL of cell culture medium. […] Into the 96-well plate, the diluted test compounds and corresponding detection reagents were added, resulting in final test compound concentrations of 500 nM and 10 nM, respectively. The experimental procedure is described below using the diluted 2 μM test compound as an example.
0.5 μL of the aforementioned diluted compound of the present disclosure (including the compounds in Table 1, Table 2, and Examples 1-468) was added to the seeded cells in 100 μL of medium, yielding a final test compound concentration of 10 nM. After the cells were treated with the compounds of the present disclosure for a specified period, the cell viability assay reagent was added to the culture medium according to the kit's instructions to determine cell viability. […] All controls were treated using the same procedure as the compounds of the present disclosure. The growth inhibition curves for the compounds of the present disclosure were plotted using Prism GraphPad software, and the IC50 values were calculated therefrom.

[3] = tested on: Human acute lymphocytic leukemia T lymphocytes cell line (CCRF-CEM); assay: Inhibition of CCRF-CEM cell proliferation (CellTiter luminescent viability); conditions: Homo sapiens, 96 h, Table IF2, AR inhibitor-based; for inhibition at 0.01 µM: 10 nM, read-out: Inhibition Rate at 10 nM (%); for inhibition at 0.5 µM: 500 nM, read-out: Inhibition Rate at 500 nM (%)
[4] = tested on: Human diffuse large B-cell lymphoma cell line (TMD8); assay: Inhibition of TMD8 cell proliferation (CellTiter luminescent viability); conditions: Homo sapiens, TMD8, 96 h, Table IF1, AR inhibitor-based; for inhibition at 0.01 µM: TMD8, 10 nM, read-out: Inhibition Rate at 10 nM (%); for inhibition at 0.5 µM: TMD8, 500 nM, read-out: Inhibition Rate at 500 nM (%)
[5] = target: T2, AR (Homo sapiens, UniProt P10275); assay: Western blot degradation of AR; conditions: LnCap Cell; 24 hours
T2 construct: expression of target proteins in cells; endogenous in cells
T2 sequence (P10275 1-920): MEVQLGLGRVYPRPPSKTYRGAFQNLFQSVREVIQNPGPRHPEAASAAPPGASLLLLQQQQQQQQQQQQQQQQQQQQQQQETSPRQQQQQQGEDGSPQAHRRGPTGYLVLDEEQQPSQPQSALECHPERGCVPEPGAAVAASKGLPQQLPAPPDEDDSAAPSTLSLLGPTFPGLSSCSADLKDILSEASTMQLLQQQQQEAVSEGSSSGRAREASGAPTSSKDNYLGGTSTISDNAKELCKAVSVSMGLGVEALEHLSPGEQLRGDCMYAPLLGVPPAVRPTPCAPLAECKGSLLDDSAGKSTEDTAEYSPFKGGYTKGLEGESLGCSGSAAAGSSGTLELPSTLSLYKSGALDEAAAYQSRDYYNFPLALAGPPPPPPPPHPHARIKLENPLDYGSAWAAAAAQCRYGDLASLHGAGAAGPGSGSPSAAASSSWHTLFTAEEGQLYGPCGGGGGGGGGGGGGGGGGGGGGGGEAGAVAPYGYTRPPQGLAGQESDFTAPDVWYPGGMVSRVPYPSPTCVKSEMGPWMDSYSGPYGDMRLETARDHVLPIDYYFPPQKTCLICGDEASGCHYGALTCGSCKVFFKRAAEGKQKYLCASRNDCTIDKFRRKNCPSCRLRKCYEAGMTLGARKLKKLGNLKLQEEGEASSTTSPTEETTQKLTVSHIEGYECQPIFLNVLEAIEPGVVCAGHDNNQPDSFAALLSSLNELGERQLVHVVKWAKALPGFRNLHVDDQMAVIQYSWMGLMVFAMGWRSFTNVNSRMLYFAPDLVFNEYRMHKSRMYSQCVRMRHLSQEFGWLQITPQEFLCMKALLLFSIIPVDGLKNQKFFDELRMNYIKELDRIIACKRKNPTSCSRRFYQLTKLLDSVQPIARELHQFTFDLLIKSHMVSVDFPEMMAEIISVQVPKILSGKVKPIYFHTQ
Experimental: as §1, §2, §3, §4, §5, §6, §7, §8

T1 sequence (Q9UM73 19-1620): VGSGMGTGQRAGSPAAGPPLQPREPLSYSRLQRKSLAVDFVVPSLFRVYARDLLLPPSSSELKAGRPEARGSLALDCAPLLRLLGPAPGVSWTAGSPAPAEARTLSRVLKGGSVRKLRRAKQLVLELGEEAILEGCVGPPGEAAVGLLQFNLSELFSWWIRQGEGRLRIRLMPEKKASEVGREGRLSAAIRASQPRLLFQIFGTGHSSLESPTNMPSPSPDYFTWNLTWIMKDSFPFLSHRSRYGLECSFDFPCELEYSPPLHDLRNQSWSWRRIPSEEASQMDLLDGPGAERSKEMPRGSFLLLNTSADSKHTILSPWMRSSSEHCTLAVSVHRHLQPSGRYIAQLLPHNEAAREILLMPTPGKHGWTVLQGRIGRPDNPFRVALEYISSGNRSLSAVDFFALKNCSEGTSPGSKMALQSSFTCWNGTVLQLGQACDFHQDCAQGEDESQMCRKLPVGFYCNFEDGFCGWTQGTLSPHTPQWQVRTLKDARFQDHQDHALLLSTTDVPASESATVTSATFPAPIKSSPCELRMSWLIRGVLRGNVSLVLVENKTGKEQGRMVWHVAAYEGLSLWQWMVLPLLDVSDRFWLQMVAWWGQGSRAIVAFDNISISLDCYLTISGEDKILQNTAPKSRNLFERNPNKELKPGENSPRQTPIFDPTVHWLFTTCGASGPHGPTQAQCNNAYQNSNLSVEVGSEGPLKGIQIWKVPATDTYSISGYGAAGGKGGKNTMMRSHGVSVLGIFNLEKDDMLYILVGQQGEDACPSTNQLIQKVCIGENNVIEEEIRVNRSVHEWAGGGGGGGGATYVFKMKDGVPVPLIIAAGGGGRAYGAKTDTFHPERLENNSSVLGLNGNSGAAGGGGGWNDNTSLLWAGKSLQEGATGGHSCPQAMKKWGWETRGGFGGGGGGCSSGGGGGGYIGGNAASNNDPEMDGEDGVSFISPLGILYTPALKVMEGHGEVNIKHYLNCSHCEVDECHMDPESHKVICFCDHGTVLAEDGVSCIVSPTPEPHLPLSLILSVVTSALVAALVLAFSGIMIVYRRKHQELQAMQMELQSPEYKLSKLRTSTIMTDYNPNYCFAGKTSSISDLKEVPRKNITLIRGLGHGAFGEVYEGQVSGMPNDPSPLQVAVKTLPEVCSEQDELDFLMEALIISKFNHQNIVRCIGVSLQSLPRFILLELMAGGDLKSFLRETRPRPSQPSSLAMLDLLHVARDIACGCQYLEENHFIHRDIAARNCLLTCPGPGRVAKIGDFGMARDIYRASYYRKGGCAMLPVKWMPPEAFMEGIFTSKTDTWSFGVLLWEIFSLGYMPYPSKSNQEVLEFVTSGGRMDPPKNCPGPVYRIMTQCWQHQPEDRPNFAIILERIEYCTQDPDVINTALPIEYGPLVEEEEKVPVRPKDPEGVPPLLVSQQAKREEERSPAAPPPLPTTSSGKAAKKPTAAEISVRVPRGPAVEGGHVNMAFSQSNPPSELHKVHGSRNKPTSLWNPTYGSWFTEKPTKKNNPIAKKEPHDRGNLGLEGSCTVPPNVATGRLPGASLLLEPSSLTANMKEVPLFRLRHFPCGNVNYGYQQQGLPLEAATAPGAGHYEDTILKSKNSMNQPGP
T1 sequence (Q96SW2 whole entry partner, the tested form may be a part): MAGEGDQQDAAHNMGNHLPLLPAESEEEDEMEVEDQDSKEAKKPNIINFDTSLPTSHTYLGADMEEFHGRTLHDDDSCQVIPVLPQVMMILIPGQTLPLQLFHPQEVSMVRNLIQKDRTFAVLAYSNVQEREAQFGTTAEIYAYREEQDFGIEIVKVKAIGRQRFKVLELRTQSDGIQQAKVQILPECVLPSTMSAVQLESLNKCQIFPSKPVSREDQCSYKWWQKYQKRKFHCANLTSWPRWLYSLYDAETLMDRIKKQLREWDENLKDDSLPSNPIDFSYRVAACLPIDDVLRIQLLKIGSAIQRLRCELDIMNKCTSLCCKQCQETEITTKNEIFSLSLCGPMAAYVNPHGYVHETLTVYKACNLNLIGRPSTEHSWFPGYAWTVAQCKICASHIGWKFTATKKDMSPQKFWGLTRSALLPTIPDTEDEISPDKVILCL

Structure (SMILES)	Degradation of substrate protein ALK (substrate protein remaining %) [1]	inhibition at 0.01 µM [2] [%]	inhibition at 0.5 µM [2] [%]	inhibition at 0.01 µM [3] [%]	inhibition at 0.5 µM [3] [%]	inhibition at 0.01 µM [4] [%]	inhibition at 0.5 µM [4] [%]	Degradation of substrate protein AR (substrate protein remaining %) [5]
COc1cc(N2CCC(N(C)Cc3ccc4c(c3)C(=O)N(N3CCC(=O)NC3=O)C4=O)CC2)ccc1Nc1ncc(Cl)c(Nc2ccccc2P(C)(C)=O)n1 [GT-04660, 5-(((1-(4-((5-chloro-4-((2-(dimethylphosphoryl)phenyl)amino)pyrimidin-2-yl)amino)-3-methoxyphenyl)piperidin-4-yl)(methyl)amino)methyl)-2-(2,4-dioxotetrahydropyrimidin-1(2H)-yl)isoindoline-1,3-dione]	A (0%≤substrate protein remaining %≤80%)	–	–	–	–	–	–	–
CCc1cc2c(cc1N1CCC(N3CCN(Cc4ccc5c(c4)C(=O)N(N4CCC(=O)NC4=O)C5=O)CC3)CC1)C(C)(C)c1[nH]c3cc(C#N)ccc3c1C2=O [GT-04661, 8-(4-(4-((2-(2,4-dioxotetrahydropyrimidin-1(2H)-yl)-1,3-dioxoisoindolin-5-yl)methyl)piperazin-1-yl)piperidin-1-yl)-9-ethyl-6,6-dimethyl-11-oxo-6,11-dihydro-5H-benzo[b]carbazole-3-carbonitrile]	A (0%≤substrate protein remaining %≤80%)	–	–	–	–	–	–	–
CC1(C)[C@H](NC(=O)c2ccc(N3CCC(CN4CCN(c5cc(F)c6c(c5)C(=O)N(N5CCC(=O)NC5=O)C6=O)CC4)CC3)nc2)C(C)(C)[C@H]1Oc1ccc(C#N)c(Cl)c1 [GT-05346, N-((1r,3r)-3-(3-chloro-4-cyanophenoxy)-2,2,4,4-tetramethylcyclobutyl)-6-(4-((4-(2-(2,4-dioxotetrahydropyrimidin-1(2H)-yl)-7-fluoro-1,3-dioxoisoindolin-5-yl)piperazin-1-yl)methyl)piperidin-1-yl)nicotinamide]	–	0 to 5	20 to 30	15 to 20	20 to 30	15 to 20	35 to 40	A (0%≤substrate protein remaining %≤80%)
N#Cc1ccc(O[C@H]2CC[C@H](NC(=O)c3ccc(N4CCC(CN5C6CC5CN(c5ccc7c(c5)C(=O)N(N5CCC(=O)NC5=O)C7=O)C6)CC4)nn3)CC2)cc1Cl [GT-05821, N-((1r,4r)-4-(3-chloro-4-cyanophenoxy)cyclohexyl)-6-(4-((3-(2-(2,4-dioxotetrahydropyrimidin-1(2H)-yl)-1,3-dioxoisoindolin-5-yl)-3,6-diazabicyclo[3.1.1]heptan-6-yl)methyl)piperidin-1-yl)pyridazine-3-carboxamide]	–	10 to 15	20 to 30	15 to 20	30 to 40	15 to 20	40 to 60	A (0%≤substrate protein remaining %≤80%)
CC1(C)[C@H](NC(=O)c2ccc(N3CCC(CN4C5CC4CN(c4ccc6c(c4)C(=O)N(N4CCC(=O)NC4=O)C6=O)C5)CC3)nc2)C(C)(C)[C@H]1Oc1ccc(C#N)c(Cl)c1 [GT-05823, N-((1r,3r)-3-(3-chloro-4-cyanophenoxy)-2,2,4,4-tetramethylcyclobutyl)-6-(4-((3-(2-(2,4-dioxotetrahydropyrimidin-1(2H)-yl)-1,3-dioxoisoindolin-5-yl)-3,6-diazabicyclo[3.1.1]heptan-6-yl)methyl)piperidin-1-yl)nicotinamide]	–	5 to 10	20 to 30	5 to 10	20 to 30	10 to 15	35 to 40	A (0%≤substrate protein remaining %≤80%)
N#Cc1ccc(O[C@H]2CC[C@H](NC(=O)c3ccc(N4CCC(CN5C6CCC5CN(c5ccc7c(c5)C(=O)N(N5CCC(=O)NC5=O)C7=O)C6)CC4)nn3)CC2)cc1Cl [GT-05824, N-((1r,4r)-4-(3-chloro-4-cyanophenoxy)cyclohexyl)-6-(4-((3-(2-(2,4-dioxotetrahydropyrimidin-1(2H)-yl)-1,3-dioxoisoindolin-5-yl)-3,8-diazabicyclo[3.2.1]octan-8-yl)methyl)piperidin-1-yl)pyridazine-3-carboxamide]	–	5 to 10	30 to 40	10 to 15	30 to 40	15 to 20	40 to 60	A (0%≤substrate protein remaining %≤80%)
CC1(C)[C@H](NC(=O)c2ccc(N3CCC(CN4C5CCC4CN(c4ccc6c(c4)C(=O)N(N4CCC(=O)NC4=O)C6=O)C5)CC3)nc2)C(C)(C)[C@H]1Oc1ccc(C#N)c(Cl)c1 [GT-05826, N-((1r,3r)-3-(3-chloro-4-cyanophenoxy)-2,2,4,4-tetramethylcyclobutyl)-6-(4-((3-(2-(2,4-dioxotetrahydropyrimidin-1(2H)-yl)-1,3-dioxoisoindolin-5-yl)-3,8-diazabicyclo[3.2.1]octan-8-yl)methyl)piperidin-1-yl)nicotinamide]	–	20 to 30	40 to 60	20 to 30	40 to 60	25 to 30	40 to 60	A (0%≤substrate protein remaining %≤80%)
